Measurements taken from patent US11666590B2, “Pharmaceutical composition, methods for treating and uses thereof” (Boehringer Ingelheim International GmbH, priority 2013, dated 2023).

Columns and labels:
[1] = metformin on its own, in the diabetic; cited from earlier work
[2] = Phase IIb trial of empagliflozin once daily over 78 weeks in patients with T2DM receiving basal insulin: eGFR (MDRD) over time; format: in vivo, human
Protocol: (§1) For the purpose of the present invention, the estimated glomerular filtration rate (eGFR) is derived from the serum creatinine (SCr) value based on the MDRD formula below: eGFR (mL/min/1.73m2)=175×[SCr (μmol/L)/88.4]-1.154×[age]-0.203×[0.742 if patient is female]×[1.212 if patient is of African origin]
A Phase IIb trial investigated the efficacy and safety of empagliflozin (EMPA 10 or 25 mg, placebo (PBO)) administered orally, once daily over 78 weeks in patients with T2DM receiving treatment with basal insulin (glargine, detemir, or NPH insulin only).

[3] = Phase III trial of empagliflozin as add-on to existing therapy for 52 weeks in patients with T2DM and renal impairment: eGFR (MDRD) over time; format: in vivo, human; details: for End-of treatment eGFR Mean / End-of treatment eGFR Mean change from baseline / eGFR at week 52 (in words): week 52
Source text: as §1
A Phase III trial investigated the efficacy and safety of empagliflozin (EMPA) as add-on to existing therapy for 52 weeks in patients with T2DM and RI. Patients with mild RI (eGFR [MDRD equation]≥60 to<90 mL/min/1.73 m^2) received EMPA 10 or 25 mg qd or placebo (PBO). Patients with moderate RI (eGFR≥30 to<60 mL/min/1.73 m^2) received EMPA 25 mg qd or PBO. Patients with severe RI (eGFR[…] to<30 mL/min/1.73 m^2) received EMPA 25 mg qd or PBO.

[4] = 52 week renal impairment study: urine albumin/creatinine ratio (UACR) by baseline UACR category; format: in vivo, human; details: for Frequency of patients, last value on-treatment Macroalbuminuria, % / Frequency of patients, last value on-treatment Microalbuminuria, % / Frequency of patients, last value on-treatment Normal, % / Urine albumin-to-creatinine ratio, change from baseline, Mean: week 52; for mean urine albumin/creatinine ratio values (in words): patients with microalbuminuria at baseline
Protocol: In a dedicated 52 week renal impairment study, patients were categorised based on their urine albumin/creatinine ratio (UACR) values at baseline, and 3 categories of patients were distinguished: patients with normal urine albumin/creatinine ratio values (<30 mg/g), patients with microalbuminuria (30 to<300 mg/g) and patients with macroalbuminurea (≥300 mg/g).
Categories for urine albumin-to-creatinine ratio: normal:<30 mg/g, microalbuminuria 30 to<300 mg/g, macroalbuminuria:≥300 mg/g

[5] = Phase III trial of empagliflozin once daily over 12 weeks in hypertensive patients with T2DM: eGFR (MDRD) over time; format: in vivo, human
Protocol: as §1
A Phase III trial investigated the efficacy and safety of empagliflozin (EMPA) administered orally, once daily over 12 weeks in hypertensive patients with T2DM (EMPA 10 or 25 mg, placebo (PBO)). Patients with a systolic blood pressure (SBP) of 130 to 159 mmHg and a diastolic blood pressure (DSP) of 80 to 99 mmHg were included in the trial.

[6] = T2DM on basal insulin, Empa 10 mg once daily, 4-week follow up visit
[7] = T2DM on basal insulin, Empa 10 mg once daily
[8] = T2DM on basal insulin, Empa 25 mg once daily, 4-week follow up visit
[9] = T2DM on basal insulin, Empa 25 mg once daily
[10] = mild renal impairment, Empa 10 mg qd, 3-week follow up visit
[11] = mild renal impairment, Empa 10 mg qd
[12] = mild renal impairment, Empa 25 mg qd, 3-week follow up visit
[13] = mild renal impairment, Empa 25 mg qd
[14] = moderate renal impairment, Empa 25 mg qd, 3-week follow-up visit
[15] = moderate renal impairment, Empa 25 mg qd
[16] = severe renal impairment, Empa 25 mg qd, 3-week follow-up visit
[17] = severe renal impairment, Empa 25 mg qd
[18] = Empa 10 mg, baseline Macroalbuminuria
[19] = Empa 10 mg, baseline Microalbuminuria
[20] = Empa 10 mg, baseline UACR Normal
[21] = Empa 25 mg, baseline Macroalbuminuria
[22] = Empa 25 mg, baseline Microalbuminuria
[23] = Empa 25 mg, baseline UACR Normal
[24] = Empa 10 mg once daily, 2-week follow up visit
[25] = Empa 25 mg once daily, 2-week follow up visit

CN(C)C(=N)N=C(N)N [metformin]
average improvement in the HbA1c value [1]: 1.0-1.5%

OC[C@H]1O[C@@H](c2ccc(Cl)c(Cc3ccc(O[C@H]4CCOC4)cc3)c2)[C@H](O)[C@@H](O)[C@@H]1O [Empa, 1-chloro-4-(β-D-glucopyranos-1-yl)-244-((S)-tetrahydrofuran-3-yloxy)-benzylFbenzene]
eGFR at follow-up Mean [2, 6]: 83.74 | eGFR at follow-up Mean change from baseline [2, 6]: −1.88 | Baseline eGFR Mean [2, 7]: 85.01 | Week 18 eGFR Mean [2, 7]: 80.37 | Week 18 eGFR Mean change from baseline [2, 7]: −4.98 | Week 54 eGFR Mean [2, 7]: 82.55 | Week 54 eGFR Mean change from baseline [2, 7]: −5.68 | Week 78 eGFR Mean [2, 7]: 81.86 | Week 78 eGFR Mean change from baseline [2, 7]: −5.52 | eGFR at follow-up Mean [2, 8]: 81.35 | eGFR at follow-up Mean change from baseline [2, 8]: −0.79 | Baseline eGFR Mean [2, 9]: 82.88 | Week 18 eGFR Mean [2, 9]: 79.11 | Week 18 eGFR Mean change from baseline [2, 9]: −3.48 | Week 54 eGFR Mean [2, 9]: 77.12 | Week 54 eGFR Mean change from baseline [2, 9]: −4.76 | Week 78 eGFR Mean [2, 9]: 77.21 | Week 78 eGFR Mean change from baseline [2, 9]: −5.64 | mean eGFR at follow up (in words) ([2]; T2DM on basal insulin, empagliflozin 10 and 25 mg, 4-week follow up visit): increased to a value slightly below baseline | eGFR on treatment (in words) ([2]; empagliflozin 10 and 25 mg, 78 weeks): small decrease in eGFR | Follow-up eGFR Mean [3, 10]: 69.84 mL/min/1.73 m^2 | Follow-up eGFR Mean change from baseline [3, 10]: 2.06 mL/min/1.73 m^2 | Baseline eGFR Mean [3, 11]: 68.42 mL/min/1.73 m^2 | End-of treatment eGFR Mean [3, 11]: 68.07 mL/min/1.73 m^2 | End-of treatment eGFR Mean change from baseline [3, 11]: −0.76 mL/min/1.73 m^2 | Follow-up eGFR Mean [3, 12]: 73.38 mL/min/1.73 m^2 | Follow-up eGFR Mean change from baseline [3, 12]: 1.28 mL/min/1.73 m^2 | Baseline eGFR Mean [3, 13]: 72.01 mL/min/1.73 m^2 | End-of treatment eGFR Mean [3, 13]: 66.25 mL/min/1.73 m^2 | End-of treatment eGFR Mean change from baseline [3, 13]: −5.67 mL/min/1.73 m^2 | mean eGFR at follow up (in words) ([3]; mild renal impairment, empagliflozin 10 and 25 mg, 3-week follow up visit): increased to a value slightly above baseline | eGFR at week 52 (in words) ([3]; mild renal impairment, empagliflozin 10 and 25 mg): small decrease in eGFR | Follow-up eGFR Mean [3, 14]: 45.39 mL/min/1.73 m^2 | Follow-up eGFR Mean change from baseline [3, 14]: 1.48 mL/min/1.73 m^2 | Baseline eGFR Mean [3, 15]: 43.84 mL/min/1.73 m^2 | End-of treatment eGFR Mean [3, 15]: 40.58 mL/min/1.73 m^2 | End-of treatment eGFR Mean change from baseline [3, 15]: −3.55 mL/min/1.73 m^2 | mean eGFR at follow-up (in words) ([3]; moderate renal impairment, empagliflozin 25 mg, 3-week follow-up visit): increased to a value slightly above baseline | eGFR at week 52 (in words) ([3]; moderate renal impairment, empagliflozin 25 mg): small decrease in eGFR | Follow-up eGFR Mean [3, 16]: 23.63 mL/min/1.73 m^2 | Follow-up eGFR Mean change from baseline [3, 16]: −0.59 mL/min/1.73 m^2 | Baseline eGFR Mean [3, 17]: 24.22 mL/min/1.73 m^2 | End-of treatment eGFR Mean [3, 17]: 20.23 mL/min/1.73 m^2 | End-of treatment eGFR Mean change from baseline [3, 17]: −3.98 mL/min/1.73 m^2 | mean eGFR at follow-up (in words) ([3]; severe renal impairment, empagliflozin 25 mg, 3-week follow-up visit): increased to a value slightly below baseline | eGFR at week 52 (in words) ([3]; severe renal impairment, empagliflozin 25 mg): small decrease in eGFR | Frequency of patients, last value on-treatment Macroalbuminuria, % [4, 18]: (33.3) % | Frequency of patients, last value on-treatment Microalbuminuria, % [4, 18]: (55.6) % | Frequency of patients, last value on-treatment Normal, % [4, 18]: (11.1) % | Frequency of patients, last value on-treatment Macroalbuminuria, % [4, 19]: (11.1) % | Frequency of patients, last value on-treatment Microalbuminuria, % [4, 19]: (61.1) % | Frequency of patients, last value on-treatment Normal, % [4, 19]: (27.8) % | Frequency of patients, last value on-treatment Microalbuminuria, % [4, 20]: (10.6) % | Frequency of patients, last value on-treatment Normal, % [4, 20]: (89.4) % | Frequency of patients, last value on-treatment Macroalbuminuria, % [4, 21]: (67.1) % | Frequency of patients, last value on-treatment Microalbuminuria, % [4, 21]: (30.1) % | Frequency of patients, last value on-treatment Normal, % [4, 21]: (2.7) % | Frequency of patients, last value on-treatment Macroalbuminuria, % [4, 22]: (3.8) % | Frequency of patients, last value on-treatment Microalbuminuria, % [4, 22]: (72.2) % | Frequency of patients, last value on-treatment Normal, % [4, 22]: (24.1) % | Frequency of patients, last value on-treatment Microalbuminuria, % [4, 23]: (10.6) % | Frequency of patients, last value on-treatment Normal, % [4, 23]: (89.4) % | Urine albumin-to-creatinine ratio, change from baseline, Mean ([4]; Empagliflozin 10 mg, patients Normal (<30 mg/g) at baseline): 4.0 mg/g | Urine albumin-to-creatinine ratio, change from baseline, Mean ([4]; Empagliflozin 10 mg, patients with Macroalbuminuria at baseline): -716.3 mg/g | Urine albumin-to-creatinine ratio, change from baseline, Mean ([4]; Empagliflozin 10 mg, patients with Microalbuminuria at baseline): 7.4 mg/g | Urine albumin-to-creatinine ratio, change from baseline, Mean ([4]; Empagliflozin 25 mg, patients Normal (<30 mg/g) at baseline): 6.0 mg/g | Urine albumin-to-creatinine ratio, change from baseline, Mean ([4]; Empagliflozin 25 mg, patients with Macroalbuminuria at baseline): -799.9 mg/g | Urine albumin-to-creatinine ratio, change from baseline, Mean ([4]; Empagliflozin 25 mg, patients with Microalbuminuria at baseline): -39.4 mg/g | Shifts between UACR categories from macro- or microalbuminuria towards normal and from macro- to microalbuminuria, versus placebo (in words) ([4]; baseline to end of treatment, empagliflozin treatment groups): higher frequency | mean urine albumin/creatinine ratio (in words) ([4]; patients with macroalbuminuria at baseline, empagliflozin groups): decrease in mean urine albumin/creatinine ratio | mean urine albumin/creatinine ratio values (in words) ([4]; empagliflozin 10 mg): remained nearly unchanged | mean urine albumin/creatinine ratio values (in words) ([4]; empagliflozin 25 mg): decreased | Follow-up eGFR Mean [5, 24]: 86.25 mL/min/1.73 m^2 | Follow-up eGFR Mean change from baseline [5, 24]: 3.06 mL/min/1.73 m^2 | Follow-up eGFR Mean change from last value on treatment [5, 24]: 3.32 mL/min/1.73 m^2 | Baseline eGFR Mean ([5]; Empa 10 mg once daily): 83.01 mL/min/1.73 m^2 | Last value on treatment eGFR Mean ([5]; Empa 10 mg once daily, week 12): 82.70 mL/min/1.73 m^2 | Last value on treatment eGFR Mean change from baseline ([5]; Empa 10 mg once daily, week 12): −0.20 mL/min/1.73 m^2 | Follow-up eGFR Mean [5, 25]: 86.60 mL/min/1.73 m^2 | Follow-up eGFR Mean change from baseline [5, 25]: 2.75 mL/min/1.73 m^2 | Follow-up eGFR Mean change from last value on treatment [5, 25]: 5.54 mL/min/1.73 m^2 | Baseline eGFR Mean ([5]; Empa 25 mg once daily): 83.97 mL/min/1.73 m^2 | Last value on treatment eGFR Mean ([5]; Empa 25 mg once daily, week 12): 81.24 mL/min/1.73 m^2 | Last value on treatment eGFR Mean change from baseline ([5]; Empa 25 mg once daily, week 12): −2.60 mL/min/1.73 m^2 | mean eGFR at follow up (in words) ([5]; empagliflozin 10 and 25 mg, 2-week follow up visit): increased to a value slightly above baseline | eGFR at week 12 (in words) ([5]; empagliflozin 10 and 25 mg, week 12): small decrease in eGFR
